Test results reported in BigSolDB 2.1.

O.O=C1NC(=O)C(=O)C(=O)N1
solubility (mole fraction) (in THF, 293.15 K): 0.046
solubility (mole fraction) (in THF, 298.15 K): 0.0549
solubility (mole fraction) (in THF, 303.15 K): 0.0638
solubility (mole fraction) (in THF, 308.15 K): 0.0739
solubility (mole fraction) (in THF, 313.15 K): 0.084
solubility (mole fraction) (in THF, 318.15 K): 0.0954
solubility (mole fraction) (in THF, 323.15 K): 0.107
solubility (mole fraction) (in acetone, 293.15 K): 0.0128
solubility (mole fraction) (in acetone, 298.15 K): 0.0132
solubility (mole fraction) (in acetone, 303.15 K): 0.0136
solubility (mole fraction) (in acetone, 308.15 K): 0.014
solubility (mole fraction) (in acetone, 313.15 K): 0.0143
solubility (mole fraction) (in acetone, 318.15 K): 0.0146
solubility (mole fraction) (in acetone, 323.15 K): 0.015
solubility (mole fraction) (in ethanol, 293.15 K): 0.0856
solubility (mole fraction) (in ethanol, 298.15 K): 0.0962
solubility (mole fraction) (in ethanol, 303.15 K): 0.107
solubility (mole fraction) (in ethanol, 308.15 K): 0.119
solubility (mole fraction) (in ethanol, 313.15 K): 0.131
solubility (mole fraction) (in ethanol, 318.15 K): 0.143
solubility (mole fraction) (in ethanol, 323.15 K): 0.155
solubility (mole fraction) (in ethylene glycol, 293.15 K): 0.0113
solubility (mole fraction) (in ethylene glycol, 298.15 K): 0.0143
solubility (mole fraction) (in ethylene glycol, 303.15 K): 0.0172
solubility (mole fraction) (in ethylene glycol, 308.15 K): 0.0206
solubility (mole fraction) (in ethylene glycol, 313.15 K): 0.024
solubility (mole fraction) (in ethylene glycol, 318.15 K): 0.0283
solubility (mole fraction) (in ethylene glycol, 323.15 K): 0.0327
solubility (mole fraction) (in methanol, 293.15 K): 0.105
solubility (mole fraction) (in methanol, 298.15 K): 0.117
solubility (mole fraction) (in methanol, 303.15 K): 0.129
solubility (mole fraction) (in methanol, 308.15 K): 0.142
solubility (mole fraction) (in methanol, 313.15 K): 0.155
solubility (mole fraction) (in methanol, 318.15 K): 0.168
solubility (mole fraction) (in methanol, 323.15 K): 0.181
solubility (mole fraction) (in water, 293.15 K): 0.0377
solubility (mole fraction) (in water, 298.15 K): 0.0403
solubility (mole fraction) (in water, 303.15 K): 0.0429
solubility (mole fraction) (in water, 308.15 K): 0.0456
solubility (mole fraction) (in water, 313.15 K): 0.0482
solubility (mole fraction) (in water, 318.15 K): 0.051
solubility (mole fraction) (in water, 323.15 K): 0.0539
